In patent US20250230193A1, “CYCLIC COMPOUND HAVING SELECTIVE KRAS INHIBITORY EFFECT ON HRAS AND NRAS” (CHUGAI SEIYAKU KABUSHIKI KAISHA, priority 2022, published 2025):

Key:
[1] = target: GDP-bound HRAS wild-type protein (Homo sapiens, UniProt P01112); test: Binding to HRAS by surface plasmon resonance (SPR), Single Cycle Kinetics; settings: KD ratio, GDP-bound HRAS wild-type vs GDP-bound KRAS wild-type, SPR
[2] = target: GDP-bound NRAS wild-type protein (Homo sapiens, UniProt P01111); test: Binding to NRAS by surface plasmon resonance (SPR), Single Cycle Kinetics; settings: KD ratio, GDP-bound NRAS wild-type vs GDP-bound KRAS wild-type, SPR
GDP-bound NRAS wild-type protein, sequence (P01111 whole entry): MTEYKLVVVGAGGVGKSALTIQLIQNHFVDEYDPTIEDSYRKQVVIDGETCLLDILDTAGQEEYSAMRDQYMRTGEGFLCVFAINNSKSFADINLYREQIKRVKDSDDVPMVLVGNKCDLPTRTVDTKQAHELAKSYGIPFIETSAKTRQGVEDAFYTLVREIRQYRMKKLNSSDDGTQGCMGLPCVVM

GDP-bound HRAS wild-type protein, sequence (P01112 whole entry): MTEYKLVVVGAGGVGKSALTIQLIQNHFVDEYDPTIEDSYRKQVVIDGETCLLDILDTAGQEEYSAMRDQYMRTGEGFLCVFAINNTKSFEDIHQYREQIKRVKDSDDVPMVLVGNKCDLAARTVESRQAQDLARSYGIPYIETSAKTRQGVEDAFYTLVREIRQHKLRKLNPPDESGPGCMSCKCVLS

SMILES	HRAS/KRAS (ratio of KD value for HRAS to KD value for KRAS) [1]	NRAS/KRAS (ratio of KD value for NRAS to KD value for KRAS) [2]
CCC[C@H]1C(=O)N[C@@H]([C@@H](C)CC)C(=O)N(C)CC(=O)N(C)[C@H]2C/C=C\CCN(C2=O)[C@@H](Cc2ccc(C(F)(F)F)cc2)C(=O)N(C)CC(=O)N[C@@H](CCc2ccc(C(F)(F)F)c(Cl)c2)C(=O)N2C[C@H](OCC)C[C@H]2C(=O)NC2(CC(C)(C)C2)C(=O)N(C)[C@@H](C2CCCC2)C(=O)N(C)[C@H](C(=O)N(C)C)CC(=O)N1C [PP1748]	B (a compound having 3 or more and less than 10 is denoted as B)	A (a compound having 10 or more and less than 20 is denoted as A)
CCO[C@@H]1C[C@H]2C(=O)NC3(CC(C)(C)C3)C(=O)N(C)[C@@H](C3CCCC3)C(=O)N(C)[C@H](C(=O)N(C)C)CC(=O)N(C)[C@@H](CC3CC3)C(=O)N[C@@H]([C@@H](C)CC)C(=O)N(C)CC(=O)N(C)[C@H]3C/C=C\CCN(C3=O)[C@@H](Cc3ccc(C(F)(F)F)cc3)C(=O)N(C)CC(=O)N[C@@H](CCc3ccc(C(F)(F)F)c(Cl)c3)C(=O)N2C1 [PP1749]	A (a compound having 10 or more and less than 20 is denoted as A)	A (a compound having 10 or more and less than 20 is denoted as A)
CCCC[C@H]1C(=O)N[C@@H]([C@@H](C)CC)C(=O)N(C)CC(=O)N(C)[C@H]2C/C=C\CCN(C2=O)[C@@H](Cc2ccc(C(F)(F)F)cc2)C(=O)N(C)CC(=O)N[C@@H](CCc2ccc(C(F)(F)F)c(Cl)c2)C(=O)N2C[C@H](OCC)C[C@H]2C(=O)NC2(CC(C)(C)C2)C(=O)N(C)[C@@H](C2CCCC2)C(=O)N(C)[C@H](C(=O)N(C)C)CC(=O)N1C [PP1750]	B (a compound having 3 or more and less than 10 is denoted as B)	A (a compound having 10 or more and less than 20 is denoted as A)
CCO[C@@H]1C[C@H]2C(=O)NC3(CC(C)(C)C3)C(=O)N(C)[C@@H](C3CCCC3)C(=O)N(C)[C@H](C(=O)N(C)C)CC(=O)N(C)[C@@H](CC(C)C)C(=O)N[C@@H]([C@@H](C)CC)C(=O)N(C)CC(=O)N(C)[C@H]3C/C=C\CCN(C3=O)[C@@H](Cc3ccc(C(F)(F)F)cc3)C(=O)N(C)CC(=O)N[C@@H](CCc3ccc(C(F)(F)F)c(Cl)c3)C(=O)N2C1 [PP1751]	A (a compound having 10 or more and less than 20 is denoted as A)	A (a compound having 10 or more and less than 20 is denoted as A)
CCO[C@@H]1C[C@H]2C(=O)NC3(CC(C)(C)C3)C(=O)N(C)[C@@H](C3CCCC3)C(=O)N(C)[C@H](C(=O)N(C)C)CC(=O)N(C)[C@@H](CC3CCC3)C(=O)N[C@@H]([C@@H](C)CC)C(=O)N(C)CC(=O)N(C)[C@H]3C/C=C\CCN(C3=O)[C@@H](Cc3ccc(C(F)(F)F)cc3)C(=O)N(C)CC(=O)N[C@@H](CCc3ccc(C(F)(F)F)c(Cl)c3)C(=O)N2C1 [PP1752]	A (a compound having 10 or more and less than 20 is denoted as A)	A (a compound having 10 or more and less than 20 is denoted as A)
CCO[C@@H]1C[C@H]2C(=O)NC3(CC(C)(C)C3)C(=O)N(C)[C@@H](C3CCCC3)C(=O)N(C)[C@H](C(=O)N(C)C)CC(=O)N(C)[C@@H](COC)C(=O)N[C@@H]([C@@H](C)CC)C(=O)N(C)CC(=O)N(C)[C@H]3C/C=C\CCN(C3=O)[C@@H](Cc3ccc(C(F)(F)F)cc3)C(=O)N(C)CC(=O)N[C@@H](CCc3ccc(C(F)(F)F)c(Cl)c3)C(=O)N2C1 [PP1753]	A (a compound having 10 or more and less than 20 is denoted as A)	A (a compound having 10 or more and less than 20 is denoted as A)
CCCOC[C@H]1C(=O)N[C@@H]([C@@H](C)CC)C(=O)N(C)CC(=O)N(C)[C@H]2C/C=C\CCN(C2=O)[C@@H](Cc2ccc(C(F)(F)F)cc2)C(=O)N(C)CC(=O)N[C@@H](CCc2ccc(C(F)(F)F)c(Cl)c2)C(=O)N2C[C@H](OCC)C[C@H]2C(=O)NC2(CC(C)(C)C2)C(=O)N(C)[C@@H](C2CCCC2)C(=O)N(C)[C@H](C(=O)N(C)C)CC(=O)N1C [PP1754]	A (a compound having 10 or more and less than 20 is denoted as A)	A (a compound having 10 or more and less than 20 is denoted as A)
CCCN(C)C(=O)[C@@H]1CC(=O)N(C)[C@@H](CC(F)F)C(=O)N[C@@H]([C@@H](C)CC)C(=O)N(C)CC(=O)N(C)[C@H]2C/C=C\CCN(C2=O)[C@@H](Cc2ccc(C(F)(F)F)cc2)C(=O)N(C)CC(=O)N[C@@H](CCc2cc(F)c(Cl)c(F)c2)C(=O)N2C[C@H](OCC)C[C@H]2C(=O)NC2(CC(C)(C)C2)C(=O)N(C)[C@@H](C2CCCC2)C(=O)N1C [PP1757]	A (a compound having 10 or more and less than 20 is denoted as A)	AA (a compound having 20 or more is denoted as AA)
CCC[C@H]1C(=O)N[C@@H]([C@@H](C)CC)C(=O)N(C)CC(=O)N(C)[C@H]2C/C=C\CCN(C2=O)[C@@H](Cc2ccc(C(F)(F)F)cc2)C(=O)N(C)CC(=O)N[C@@H](CCc2cc(F)c(Cl)c(F)c2)C(=O)N2C[C@H](OCC)C[C@H]2C(=O)NC2(CC(C)(C)C2)C(=O)N(C)[C@@H](C2CCCC2)C(=O)N(C)[C@H](C(=O)N(C)C)CC(=O)N1C [PP1758]	A (a compound having 10 or more and less than 20 is denoted as A)	AA (a compound having 20 or more is denoted as AA)
CCO[C@@H]1C[C@H]2C(=O)NC3(CC(C)(C)C3)C(=O)N(C)[C@@H](C3CCCC3)C(=O)N(C)[C@H](C(=O)N(C)C)CC(=O)N(C)[C@@H](CC3CC3)C(=O)N[C@@H]([C@@H](C)CC)C(=O)N(C)CC(=O)N(C)[C@H]3C/C=C\CCN(C3=O)[C@@H](Cc3ccc(C(F)(F)F)cc3)C(=O)N(C)CC(=O)N[C@@H](CCc3cc(F)c(Cl)c(F)c3)C(=O)N2C1 [PP1759]	A (a compound having 10 or more and less than 20 is denoted as A)	A (a compound having 10 or more and less than 20 is denoted as A)
CCO[C@@H]1C[C@H]2C(=O)NC3(CC(C)(C)C3)C(=O)N(C)[C@@H](C3CCCC3)C(=O)N(C)[C@H](C(=O)N(C)C)CC(=O)N(C)[C@@H](CC(C)C)C(=O)N[C@@H]([C@@H](C)CC)C(=O)N(C)CC(=O)N(C)[C@H]3C/C=C\CCN(C3=O)[C@@H](Cc3ccc(C(F)(F)F)cc3)C(=O)N(C)CC(=O)N[C@@H](CCc3cc(F)c(Cl)c(F)c3)C(=O)N2C1 [PP1761]	A (a compound having 10 or more and less than 20 is denoted as A)	A (a compound having 10 or more and less than 20 is denoted as A)
CCO[C@@H]1C[C@H]2C(=O)NC3(CC(C)(C)C3)C(=O)N(C)[C@@H](C3CCCC3)C(=O)N(C)[C@H](C(=O)N(C)C)CC(=O)N(C)[C@@H](CC3CCC3)C(=O)N[C@@H]([C@@H](C)CC)C(=O)N(C)CC(=O)N(C)[C@H]3C/C=C\CCN(C3=O)[C@@H](Cc3ccc(C(F)(F)F)cc3)C(=O)N(C)CC(=O)N[C@@H](CCc3cc(F)c(Cl)c(F)c3)C(=O)N2C1 [PP1762]	A (a compound having 10 or more and less than 20 is denoted as A)	A (a compound having 10 or more and less than 20 is denoted as A)
